pIC50: −log10 of the molar value.

The target of the assay is T1, tubulin/RB3-stathmin-like-domain (RB3-SLD-tdm) complex (Sus scrofa, UniProt P02550+P02554).
T1 construct: purchased Cytoskeleton, Inc. T240; host or cells: RB3-SLD was made in house in E. coli
In words: Tubulin Peptide-Binding Site Competition Assay (fluorescence polarization). Set-up: species or system Porcine. The settings on record: FP competition with BODIPY-labeled vinca peptide probe; read after five hours at 22° C.; read-out: Tubulin Peptide-Binding Site Competition Assay IC50. Here is the method: Tubulin Peptide-Binding Site Competition Assay
Tubulin binding potency was measured for payloads or cysteine-capped linker-payloads using a fluorescence polarization (FP) competition assay. The binding of a BODIPY-labeled vinca peptide probe (# B31) to a tubulin/RB3-stathmin-like-domain (RB3-SLD-tdm) complex generates a high FP signal, which can be decreased when mixing with test compounds that compete with the FP probe. The order of addition for the reagents in the FP assay was designed to pre-mix the FP probe with various concentrations of the test compound before mixing them with the tubulin/RB3-SLD-dm complex. The final assay concentrations of the probe, tubulin and RB3-SLD-dm were 3, 6, and 100 nM, respectively. IC50 for each test compound is obtained by fitting the dose-dependent FP signal change using GraphPad Prism version 5 software (La Jolla, Calif.) while Ki is converted from the IC50 using the equations described previously (Nikolovska-Coleska et al., 2004). The FP signals were measured on an Infinite M1000 (Tecan, San Jose, Calif.) using ProxiPlate-384 F Plus, Black (Perkin-Elmer, Waltham, Mass., Cat #6008260) with 15 μL of solution per well. Sample dilution and mixing were done using a Beckman Biomek XF (Brea, Calif.). Porcine tubulin was purchased from Cytoskeleton, Inc. (Denver, Colo., Cat #T240) and RB3-SLD was expressed in E. coli. and purified on Q and then Superdex75 columns. The FP assay test for each compound was run in duplicates by mixing 6 μL of solution 1 containing 2.5× test compound (2.5× serial dilution from 7.8 μM maximum concentration, 11 total concentrations) and 7.5 nM of the FP probe in 80 mM PIPES, pH 7.0, 0.02% Tween 20, 2 mM MgCl2, 1 mM EGTA and 3% DMSO with 9 μL of solution 2 containing […] porcine tubulin and 167 nM of RB3-SLD-dm peptide ([…]-[…]) on ProxiPlate-384 micro-plates.
Consider `CC[C@H](C)[C@H](NC(=O)C(C)(C)N(C)C)C(=O)N(C)[C@H](C[C@@H](OC(C)=O)c1nc(C(=O)N[C@@H](Cc2ccccc2)C[C@H](C)C(=O)OC)cs1)C(C)C` [#B34, N,N,-2-trimethylalanyl-N-[(1R,3R)-1-(acetyloxy)-1-(4-{[(2R,4S)-5-methoxy-4-methyl-5-oxo-1-phenylpentan-2-yl]carbamoyl}-1,3-thiazol-2-yl)-4-methylpentan-3-yl]-N-methyl-L-isoleucinamide], for which the pIC50 is 7.61.

Consider `CC[C@H](C)[C@H](NC(=O)C(C)(C)N)C(=O)N(C)[C@H](C[C@@H](OC(C)=O)c1nc(C(=O)N[C@@H](Cc2ccccc2)C[C@H](C)C(=O)OC)cs1)C(C)C` [#B35, 2-methylalanyl-N-[(1R,3R)-1-(acetyloxy)-1-(4-{[(2R,4S)-5-methoxy-4-methyl-5-oxo-1-phenylpentan-2-yl]carbamoyl}-1,3-thiazol-2-yl)-4-methylpentan-3-yl]-N-methyl-L-isoleucinamide], for which the negative-log IC50 (pIC50) is 7.01.

For the compound `CC[C@H](C)[C@H](NC(=O)[C@@]1(C)CCCN1C)C(=O)N(C)[C@H](C[C@@H](OC(C)=O)c1nc(C(=O)NCCn2nc(C)cc2C)cs1)C(C)C` [#B42, 1,2-dimethyl-D-prolyl-N-[(1R,3R)-1-(acetyloxy)-1-(4-{[2-(3,5-dimethyl-1H-pyrazol-1-yl)ethyl]carbamoyl}-1,3-thiazol-2-yl)-4-methylpentan-3-yl]-N-methyl-L-isoleucinamide], the negative logarithm of the IC50 (pIC50) was 7.56.

Consider `CC[C@H](C)[C@H](NC(=O)[C@@]1(C)CCCN1C)C(=O)N(C)[C@H](C[C@@H](OC(C)=O)c1nc(C(=O)NCCCN2CCCC2=O)cs1)C(C)C` [#B43, 1,2-dimethyl-D-prolyl-N-[(1R,3R)-1-(acetyloxy)-4-methyl-1-(4-{[3-(2-oxopyrrolidin-1-yl)propyl]carbamoyl}-1,3-thiazol-2-yl)pentan-3-yl]-N-methyl-L-isoleucinamide], for which the pIC50 is 7.29.

On to `CC[C@H](C)[C@H](NC(=O)[C@@]1(C)CCCN1C)C(=O)N(C)[C@H](C[C@@H](OC(C)=O)c1nc(C(=O)NCCN2Cc3ccccc3C2=O)cs1)C(C)C` [#B44, 1,2-dimethyl-D-prolyl-N-[(1R,3R)-1-(acetyloxy)-4-methyl-1-(4-{[2-(1-oxo-1,3-dihydro-2H-isoindol-2-yl)ethyl]carbamoyl}-1,3-thiazol-2-yl)pentan-3-yl]-N-methyl-L-isoleucinamide], for which the pIC50 was 7.32.

Consider `CC[C@H](C)[C@H](NC(=O)[C@@]1(C)CCCN1C)C(=O)N(C)[C@H](C[C@@H](OC(C)=O)c1nc(C(=O)NCCc2ccc(-c3ccccc3)cc2)cs1)C(C)C` [#B45, 1,2-dimethyl-D-prolyl-N-[(1R,3R)-1-(acetyloxy)-1-(4-{[2-(biphenyl-4-yl)ethyl]carbamoyl}-1,3-thiazol-2-yl)-4-methylpentan-3-yl]-N-methyl-L-isoleucinamide], for which the pIC50 is 6.36.

Regarding `CC[C@H](C)[C@H](NC(=O)[C@@]1(C)CCCN1C)C(=O)N(C)[C@H](C[C@@H](OC(C)=O)c1nc(C(=O)NCCN2CCOCC2)cs1)C(C)C` [#B46, 1,2-dimethyl-D-prolyl-N-[(1R,3R)-1-(acetyloxy)-4-methyl-1-(4-{[2-(morpholin-4-yl)ethyl]carbamoyl}-1,3-thiazol-2-yl)pentan-3-yl]-N-isomethyl-L-leucinamide], the pIC50 was 6.55.

For `CC[C@H](C)[C@H](NC(=O)[C@@]1(C)CCCN1C)C(=O)N(C)[C@H](C[C@@H](OC(C)=O)c1nc(C(=O)NC2(Cc3ccccc3)CCCCC2)cs1)C(C)C` [#B47, 1,2-dimethyl-D-prolyl-N-[(1R,3R)-1-(acetyloxy)-1-{4-[(1-benzylcyclohexyl)carbamoyl]-1,3-thiazol-2-yl}-4-methylpentan-3-yl]-N-methyl-L-isoleucinamide], the pIC50 is 6.70.

Turning to `CC[C@H](C)[C@H](NC(=O)[C@@]1(C)CCCN1C)C(=O)N(C)[C@H](C[C@@H](OC(C)=O)c1nc(C(=O)NCCn2ccnc2)cs1)C(C)C` [#B48, 1,2-dimethyl-D-prolyl-N-[(1R,3R)-1-(acetyloxy)-1-{4-{[2-(1H-imidazol-1-yl)ethyl]carbamoyl}-1,3-thiazol-2-yl)-4-methylpentan-3-yl]-N-methyl-L-isoleucinamide], the pIC50 is 6.96.

As a reminder, the pIC50 is the negative decadic logarithm of the IC50, by convention in mol/L.

For the origin of these results see patent publication US10723727B2, “Tubulysin analogs and methods for their preparation” (priority 2016, dated 2020).
